Results published in patent publication EP3057951B1, “METHYLENE LINKED QUINOLINYL MODULATORS OF ROR-GAMMA-T” (Janssen Pharmaceutica NV, priority 2013, dated 2015).
Structures can show the parent of a compound that is named as a salt. Where two headings read alike, the source gives them in different places.

Target: T1, wild type human RORγt LBD (Homo sapiens, UniProt P51449)
T1 construct: expressed in transfected cells; host or cells: HEK293T
T1 sequence (P51449 258-518): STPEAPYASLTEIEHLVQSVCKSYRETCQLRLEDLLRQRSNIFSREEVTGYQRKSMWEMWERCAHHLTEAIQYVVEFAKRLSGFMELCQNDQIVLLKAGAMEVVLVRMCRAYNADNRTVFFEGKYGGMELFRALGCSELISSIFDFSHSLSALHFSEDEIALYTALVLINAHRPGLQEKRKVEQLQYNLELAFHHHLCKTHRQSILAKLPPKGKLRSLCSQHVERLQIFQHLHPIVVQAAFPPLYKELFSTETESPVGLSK
Assay: RORγt (LBD) Reporter Assay (GAL4-luciferase, HEK293T cells)
Type: cell-based
Conditions: for RORγt (LBD) Reporter Assay, % inhibition @ 6 µM: 6 µM compound concentration; for inhibition at 6 µM: HEK-293T, read-out: RORγt (LBD) Reporter Assay, % inhibition @ 6 µM, 6 µM compound concentration

inhibition at 6 µM (HEK293T cells)	SMILES	inhibition at 6 µM	other results
–	CC(=O)N1CCC(C(O)(c2ccc3nc(C(F)(F)F)c(Cc4ccccc4)c(Cl)c3c2)c2cncn2C)CC1 (single isomer, unassigned) [Example 115c, 1-(4-((3-Benzyl-4-chloro-2-(trifluoromethyl)quinolin-6-yl)(hydroxy)(1-methyl-1H-imidazol-5-yl)methyl)piperidin-1-yl)ethanone•TFA]	–	RORγt (LBD) Reporter Assay, % inhibition @ 6 µM (HEK293T cells): 70%
98%	CNC(c1ccc2nc(OC)c(Cc3ccc(C(F)(F)F)cc3)c(Cl)c2c1)(c1ccc(C)nc1C)c1cnnn1C (single isomer, unassigned) [Example 121b, 1-(4-Chloro-2-methoxy-3-(4-(trifluoromethyl)benzyl)quinolin-6-yl)-1-(2,6-dimethylpyridin-3-yl)-N-methyl-1-(1-methyl-1H-1,2,3-triazol-5-yl)methanamine•TFA]	–	–
–	COc1c(Cc2ccccc2)c(C(F)(F)F)nc2ccc(C(O)(c3ccc(Cl)cc3)c3cncn3C)cc12 (single isomer, unassigned) [Example 101c]	89%	–
–	COc1nc2ccc(C(O)(c3ccc(C)nc3C)c3cnnn3C)cc2c(Cl)c1Cc1ccc(C(F)(F)F)nc1 (stereo not drawn) [Example 40a, (4-Chloro-2-methoxy-3-((6-(trifluoromethyl)pyridin-3-yl)methyl)quinolin-6-yl)(2,6-dimethylpyridin-3-yl)(1-methyl-1H-1,2,3-triazol-5-yl)methanol]	98%	–
–	COc1nc2ccc(C(O)(c3ccccn3)c3cncn3C)cc2c(Cl)c1Cc1ccc(-n2cccn2)cc1 (single isomer, unassigned) [Example 64c, (3-(4-(1H-Pyrazol-1-yl)benzyl)-4-chloro-2-methoxyquinolin-6-yl)(1-methyl-1H-imidazol-5-yl)(pyridin-2-yl)methanol]	–	RORγt (LBD) Reporter Assay, % inhibition @ 6 µM: 107%
88%	Cn1cncc1C(O)(c1ccc(Cl)cc1)c1ccc2nc(Cl)c(Cc3ccc(C(F)(F)F)cc3)c(Cl)c2c1 (stereo not drawn) [Example 155, (4-chlorophenyl)(2,4-dichloro-3-(4-(trifluoromethyl)benzyl)quinolin-6-yl)(1-methyl-1H-imidazol-5-yl)methanol•TFA]	–	IC50 (HEK293T cells): 160 nM
98%	COc1nc2ccc(C(c3ccc(C)nc3C)(c3cnnn3C)N(C)C)cc2c(Cl)c1Cc1ccc(C(F)(F)F)cc1 (single isomer, unassigned) [Example 122b, 1-(4-Chloro-2-methoxy-3-(4-(trifluoromethyl)benzyl)quinolin-6-yl)-1-(2,6-dimethylpyridin-3-yl)-N,N-dimethyl-1-(1-methyl-1H-1,2,3-triazol-5-yl)methanamine•TFA]	–	–
–	COc1c(Cc2ccccc2)c(C(F)(F)F)nc2ccc(C(O)(c3ccc(Cl)cc3)c3cncn3C)cc12 (racemic) [Example 101a, (3-Benzyl-4-methoxy-2-(trifluoromethyl)quinolin-6-yl)(4-chlorophenyl)(1-methyl-1H-imidazol-5-yl)methanol•TFA]	96%	–
–	COc1nc2ccc(C(c3ccc(C)nc3C)(c3cnnn3C)N(C)C)cc2c(Cl)c1Cc1ccc(C(F)(F)F)cc1 (single isomer, unassigned) [Example 122c, 1-(4-Chloro-2-methoxy-3-(4-(trifluoromethyl)benzyl)quinolin-6-yl)-1-(2,6-dimethylpyridin-3-yl)-N,N-dimethyl-1-(1-methyl-1H-1,2,3-triazol-5-yl)methanamine•TFA]	–	RORγt (LBD) Reporter Assay, % inhibition @ 6 µM (HEK293T cells): 99%
–	COc1nc2ccc(C(O)(c3cnnn3C)c3cnc(C)n3C)cc2c(Cl)c1Cc1ccc(F)cc1 (single isomer, unassigned) [Example 65b]	74%	–

SMILES	inhibition at 6 µM (HEK293T cells)	inhibition at 6 µM	other results
COc1nc2ccc(C(O)(c3oc(C)nc3C)c3cnnn3C)cc2c(Cl)c1Cc1ccc(C(F)(F)F)cc1 (single isomer, unassigned) [Example 156b, (4-chloro-2-methoxy-3-(4-(trifluoromethyl)benzyl)quinolin-6-yl)(2,4-dimethylozazol-5-yl)(1-methyl-1H-1,2,3-triazol-5-yl)methanol]	98%	–	–
